Test results from US20020071842A1, “Soluble CD1 compositions and uses thereof” (priority 2000, published 2002).
Entries after “also recorded” stand apart in the source; their conditions may differ.

Columns and labels:
Test in all cases: Plate-bound mCD1d fusion protein hybridoma stimulation assay (IL-2 ELISA)
Format in all cases: cell-based, mouse
24.8.A hybridoma = conditions: for IL-2 response to mCD1d fusion protein pre-treated with purified or synthetic lipid: compared to untreated or buffer treated fusion protein; for IL-2 secretion: 24.8 A NKT hybridoma, plate-bound mCD1d-IgGFc2a fusion protein preincubated with lipid antigen
Outline: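 Protein A plates were loaded with 400-600 ng/well mCD1d fusion protein, then given lipid antigen (40:1 molar ratio to fusion protein unless specified) in PBS pH 7.2 for 24-48 h at 37 °C. After washing, 1×10^5 hybridoma cells/well were added for 16-20 h at 37 °C. Secreted IL-2 measured by sandwich ELISA against a murine IL-2 standard curve.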

14S.15.A hybridoma = conditions: 14S.15.A diverse TCR hybridoma; plate-bound mCD1d-IgGFc2a fusion protein preincubated with lipid antigen
Outline: (§1)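 Protein A plates loaded with 400-600 ng/well mCD1d fusion protein plus lipid antigen (default 40:1 molar ratio), 24-48 hr at 37 °C, washed; hybridomas added at 1×10^5 cells/well for 16-20 hr. Supernatant IL-2 quantified by sandwich ELISA against murine IL-2 standard curve.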

24.7.C hybridoma = conditions: 24 7.C NKT hybridoma; plate-bound mCD1d-IgGFc2a fusion protein preincubated with lipid antigen
Outline: as §1

24.9.E hybridoma = conditions: for IL-2 secretion: 24.9 E NKT hybridoma, plate-bound mCD1d-IgGFc2a fusion protein preincubated with lipid antigen
Outline: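 IL-2 (pg/ml) by sandwich ELISA, regressed on a murine IL-2 standard curve, reports stimulation of hybridomas (1×10^5/well, 16-20 hr, 37° C) on immobilized mCD1d fusion protein pre-pulsed with lipid, 40:1 molar ratio by default, 24-48 hr at 37° C.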

| reduction of IL-2 secretion by phospholipase treatment of the antigen (24.8.A hybridoma; PI treated with PLC or PLD prior to pre-incubation with the mCD1d fusion protein) | Compound | IL-2 response to mCD1d fusion protein pre-treated with purified or synthetic lipid (24.8.A hybridoma; 24.8.A hybridoma) | IL-2 secretion (24.8.A hybridoma) | IL-2 secretion (14S.15.A hybridoma) | IL-2 secretion (24.7.C hybridoma) | IL-2 response to mCD1d fusion protein pre-treated with purified or synthetic lipid (24.9.E hybridoma; 24.9.E hybridoma) | enhancement of antigen recognition after pre-incubation at pH 4.0 compared to pH 7.5 (24.9.E hybridoma; 24.9.E hybridoma, 3:1 molar ratio of antigen to protein, citrate/phosphate buffer) | pre-incubation pH giving maximal IL-2 release (24.9.E hybridoma; 24.9.E hybridoma, pH 7.5 to pH 3.0 tested) | IL-2 when the 19G11 anti-mCD1d mAb was included (24.9.E hybridoma; 24.9.E hybridoma, representative experiment, 19G11 blocking antibody included) [pg/mL] | mean IL-2 produced (24.9.E hybridoma; 24.9.E hybridoma, representative experiment, mCD1d fusion protein pre-treated with antigen) | IL-2 secretion (24.9.E hybridoma) | IL-2 produced in the presence of the 19G11 anti-mCD1d mAb (24.8.A hybridoma; 24.8.A hybridoma, representative experiment, 19G11 blocking antibody included) | mean IL-2 secreted (24.8.A hybridoma; 24.8.A hybridoma, representative experiment, mCD1d fusion protein pre-treated with antigen) |
| --- | --- | --- | --- | --- | --- | --- | --- | --- | --- | --- | --- | --- | --- |
| – | CCCCCCCCCCCCCCCCCCCCCCCCCC(=O)N[C@@H](CO[C@H]1O[C@H](CO)[C@H](O)[C@H](O)[C@H]1O)[C@H](O)[C@H](O)CCCCCCCCCCCCCC [α-GalCer, α-galactosylceramide] | only a slightly enhanced response; also recorded: little IL-2 was secreted | + (“+” indicates 50-250 pg/ml) | + (“+” indicates 50-250 pg/ml) | +++ (“+++” indicates greater than 1000 pg/ml IL-2) | responded strongly; also recorded: secreted IL-2 efficiently | approximately 4 fold | 4.0 | 103 | 2,089 pg/ml | +++ (“+++” indicates greater than 1000 pg/ml IL-2) | – | – |
| approximately 70% | phosphatidylinositol [PI] | marked increase of IL-2 production; also recorded: significantly enhanced IL-2 release | +++ (“+++” indicates greater than 1000 pg/ml IL-2) | 0 (A “0” indicates a mean of less than 50 pg/ml IL-2 was secreted) | 0 (A “0” indicates a mean of less than 50 pg/ml IL-2 was secreted) | only modestly increased IL-2 secretion; also recorded: significantly less IL-2 | – | – | – | – | + (“+” indicates 50-250 pg/ml) | no detectable IL-2 | 4,746 pg/ml |
| – | unglycosylated ceramide | – | + (“+” indicates 50-250 pg/ml) | 0 (A “0” indicates a mean of less than 50 pg/ml IL-2 was secreted) | 0 (A “0” indicates a mean of less than 50 pg/ml IL-2 was secreted) | neither the unglycosylated ceramide, nor the closely related β-linked form, β-GalCer, were recognized | – | – | – | – | 0 (A “0” indicates a mean of less than 50 pg/ml IL-2 was secreted) | – | – |
| – | β-galactosylceramide [β-GalCer] | – | + (“+” indicates 50-250 pg/ml) | 0 (A “0” indicates a mean of less than 50 pg/ml IL-2 was secreted) | 0 (A “0” indicates a mean of less than 50 pg/ml IL-2 was secreted) | neither the unglycosylated ceramide, nor the closely related β-linked form, β-GalCer, were recognized | – | – | – | – | 0 (A “0” indicates a mean of less than 50 pg/ml IL-2 was secreted) | – | – |
